According to PubChem BioAssay AID1963986 (Molecular Pharmacology Branch, DTP, NCI, 2024):

System: 171881-019-R-J1-PDC tumor spheroid viability
Assay: Anticancer human tumor 171881-019-R-J1-PDC patient-derived invasive breast carcinoma cell line growth inhibition [PI3K]
Settings: spheroids with HUVEC and MSC; for IC50: curve of first compound; for viability, T/C: stronger effect = lower value
How it was run: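 Agents were dosed from a top concentration near clinical Cmax (otherwise 10 microM) in half-log decrements, alone or combined with PI3K inhibitors. The spheroids contain tumor cells plus endothelial (HUVEC) and MSC stroma; viability is measured.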

[1] = second compound 0.0316 µM, first compound 0.0316 µM
[2] = second compound 0.0316 µM, first compound 0.1 µM
[3] = second compound 0.0316 µM, first compound 0.316 µM
[4] = second compound 0.0316 µM, first compound 1 µM
[5] = second compound 0.0316 µM, first compound 3.16 µM
[6] = second compound 0.0316 µM, first compound 10 µM
[7] = second compound 0.1 µM, first compound 0.0316 µM
[8] = second compound 0.1 µM, first compound 0.1 µM
[9] = second compound 0.1 µM, first compound 0.316 µM
[10] = second compound 0.1 µM, first compound 1 µM
[11] = second compound 0.1 µM, first compound 3.16 µM
[12] = second compound 0.1 µM, first compound 10 µM
[13] = second compound 0.316 µM, first compound 0.0316 µM
[14] = second compound 0.316 µM, first compound 0.1 µM
[15] = second compound 0.316 µM, first compound 0.316 µM
[16] = second compound 0.316 µM, first compound 1 µM
[17] = second compound 0.316 µM, first compound 3.16 µM
[18] = second compound 0.316 µM, first compound 10 µM
[19] = second compound 1 µM, first compound 0.0316 µM
[20] = second compound 1 µM, first compound 0.1 µM
[21] = second compound 1 µM, first compound 0.316 µM
[22] = second compound 1 µM, first compound 1 µM
[23] = second compound 1 µM, first compound 3.16 µM
[24] = second compound 1 µM, first compound 10 µM
[25] = second compound 3.16 µM, first compound 0.0316 µM
[26] = second compound 3.16 µM, first compound 0.1 µM
[27] = second compound 3.16 µM, first compound 0.316 µM
[28] = second compound 3.16 µM, first compound 1 µM
[29] = second compound 3.16 µM, first compound 3.16 µM
[30] = second compound 3.16 µM, first compound 10 µM
[31] = second compound 10 µM, first compound 0.0316 µM
[32] = second compound 10 µM, first compound 0.1 µM
[33] = second compound 10 µM, first compound 0.316 µM
[34] = second compound 10 µM, first compound 1 µM
[35] = second compound 10 µM, first compound 3.16 µM
[36] = second compound 10 µM, first compound 10 µM
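Also: spheroids exposed to compound for 7 days before viability read.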
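For viability, T/C in this document: 100% = DMSO vehicle-treated spheroids.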

CC1(C)CCC(Nc2ncc(C(F)(F)F)c(-c3c[nH]c4c(P(C)(C)=O)c(C#N)ccc34)n2)CN1 (stereo not drawn) + CC(Nc1ncnc2nc[nH]c12)c1cc2cccc(Cl)c2c(=O)n1-c1ccccc1 showed an IC50 (second compound 0.0316 µM) of 5.91 µM, an IC50 (second compound 0.1 µM) of 5.62 µM and an IC50 (second compound 0.316 µM) of 5.58 µM. For the same compound, the IC50 (second compound 1 µM) was 5.22 µM, the IC50 (second compound 3.16 µM) was 4.43 µM and the IC50 (second compound 10 µM) was less than 0.0316 µM. It also gave a viability, T/C [1] of 68.3%, a viability, T/C [2] of 77.2% and a viability, T/C [3] of 71.8%. For the same compound, the viability, T/C [4] was 79.3%, the viability, T/C [5] was 84.1% and the viability, T/C [6] was 28.1%. It also gave a viability, T/C [7] of 65.5%, a viability, T/C [8] of 74.5% and a viability, T/C [9] of 73.1%. The viability, T/C [10] was 81.5%, the viability, T/C [11] was 88.8% and the viability, T/C [12] was 23.3%. The viability, T/C [13] was 65.5%, the viability, T/C [14] was 75.1% and the viability, T/C [15] was 74.1%. For the same compound, the viability, T/C [16] was 83.2%, the viability, T/C [17] was 81.9% and the viability, T/C [18] was 23.4%. For the same compound, the viability, T/C [19] was 69.1%, the viability, T/C [20] was 69% and the viability, T/C [21] was 73.8%. It also gave a viability, T/C [22] of 78.6%, a viability, T/C [23] of 73% and a viability, T/C [24] of 20.6%. The viability, T/C [25] was 66%, the viability, T/C [26] was 65% and the viability, T/C [27] was 67.9%. For the same compound, the viability, T/C [28] was 71.4%, the viability, T/C [29] was 65.3% and the viability, T/C [30] was 12.7%. The viability, T/C [31] was 51%, the viability, T/C [32] was 47% and the viability, T/C [33] was 45.9%. It also gave a viability, T/C [34] of 48.5%, a viability, T/C [35] of 41.4% and a viability, T/C [36] of 3.63%.

Compound CC(Cn1ccc(-c2ccc(C#N)c(Cl)c2)n1)NC(=O)c1cc(C(C)O)[nH]n1 (stereo not drawn) + COc1c(OCCCN2CCOCC2)ccc2c3n(c(=NC(=O)c4cnc(N)nc4)nc12)CCN3 has an IC50 (second compound 0.00316 µM) greater than 10 µM, an IC50 (second compound 0.01 µM) of less than 0.0316 µM and an IC50 (second compound 0.0316 µM) of less than 0.0316 µM. The IC50 (second compound 0.1 µM) was less than 0.0316 µM, the IC50 (second compound 0.316 µM) was less than 0.0316 µM and the IC50 (second compound 1 µM) was less than 0.0316 µM. It also gave a viability, T/C (second compound 0.00316 µM, first compound 0.0316 µM) of 64.2%, a viability, T/C (second compound 0.00316 µM, first compound 0.1 µM) of 66.1% and a viability, T/C (second compound 0.00316 µM, first compound 0.316 µM) of 55%. It also gave a viability, T/C (second compound 0.00316 µM, first compound 1 µM) of 62%, a viability, T/C (second compound 0.00316 µM, first compound 3.16 µM) of 64.5% and a viability, T/C (second compound 0.00316 µM, first compound 10 µM) of 48.1%. The viability, T/C (second compound 0.01 µM, first compound 0.0316 µM) was 48.6%, the viability, T/C (second compound 0.01 µM, first compound 0.1 µM) was 52.4% and the viability, T/C (second compound 0.01 µM, first compound 0.316 µM) was 45.4%. The viability, T/C (second compound 0.01 µM, first compound 1 µM) was 51.1%, the viability, T/C (second compound 0.01 µM, first compound 3.16 µM) was 45% and the viability, T/C (second compound 0.01 µM, first compound 10 µM) was 32.2%. The viability, T/C [1] was 22.5%, the viability, T/C [2] was 25.8% and the viability, T/C [3] was 21.9%. The viability, T/C [4] was 22.7%, the viability, T/C [5] was 24.5% and the viability, T/C [6] was 17.4%. It also gave a viability, T/C [7] of 6.84%, a viability, T/C [8] of 7.08% and a viability, T/C [9] of 6.29%. The viability, T/C [10] was 6.57%, the viability, T/C [11] was 7.04% and the viability, T/C [12] was 5.04%. It also gave a viability, T/C [13] of 1.65%, a viability, T/C [14] of 1.42% and a viability, T/C [15] of 1.54%. The viability, T/C [16] was 1.44%, the viability, T/C [17] was 1.55% and the viability, T/C [18] was 2.61%. For the same compound, the viability, T/C [19] was 1.17%, the viability, T/C [20] was 0.9% and the viability, T/C [21] was 2.01%. For the same compound, the viability, T/C [22] was 1.22%, the viability, T/C [23] was 2.13% and the viability, T/C [24] was 3.1%.

CC(Cn1ccc(-c2ccc(C#N)c(Cl)c2)n1)NC(=O)c1cc(C(C)O)[nH]n1 (stereo not drawn) + Cc1nc(NC(=O)N2CCCC2C(N)=O)sc1-c1ccnc(C(C)(C)C(F)(F)F)c1 was tested, and the IC50 (second compound 0.0316 µM) was greater than 10 µM, the IC50 (second compound 0.1 µM) was greater than 10 µM and the IC50 (second compound 0.316 µM) was 4.16 µM. For the same compound, the IC50 (second compound 1 µM) was less than 0.0316 µM, the IC50 (second compound 3.16 µM) was less than 0.0316 µM and the IC50 (second compound 10 µM) was less than 0.0316 µM. For the same compound, the viability, T/C [1] was 101%, the viability, T/C [2] was 85.3% and the viability, T/C [3] was 87.7%. The viability, T/C [4] was 93.7%, the viability, T/C [5] was 85% and the viability, T/C [6] was 62.8%. The viability, T/C [7] was 74.8%, the viability, T/C [8] was 72.9% and the viability, T/C [9] was 81.3%. The viability, T/C [10] was 80%, the viability, T/C [11] was 75.6% and the viability, T/C [12] was 59.1%. The viability, T/C [13] was 55.5%, the viability, T/C [14] was 55.3% and the viability, T/C [15] was 50.7%. It also gave a viability, T/C [16] of 57.7%, a viability, T/C [17] of 52.5% and a viability, T/C [18] of 40.3%. For the same compound, the viability, T/C [19] was 34.4%, the viability, T/C [20] was 32.9% and the viability, T/C [21] was 33.4%. It also gave a viability, T/C [22] of 30.8%, a viability, T/C [23] of 30.5% and a viability, T/C [24] of 24.4%. It also gave a viability, T/C [25] of 14.5%, a viability, T/C [26] of 13.7% and a viability, T/C [27] of 15.3%. The viability, T/C [28] was 13.1%, the viability, T/C [29] was 14.2% and the viability, T/C [30] was 11.9%. It also gave a viability, T/C [31] of 3.76%, a viability, T/C [32] of 3.6% and a viability, T/C [33] of 3.61%. The viability, T/C [34] was 3.9%, the viability, T/C [35] was 3.74% and the viability, T/C [36] was 3.87%.

CC1(C)CCC(Nc2ncc(C(F)(F)F)c(-c3c[nH]c4c(P(C)(C)=O)c(C#N)ccc34)n2)CN1 (stereo not drawn) + Cc1nc(NC(=O)N2CCCC2C(N)=O)sc1-c1ccnc(C(C)(C)C(F)(F)F)c1 gave an IC50 (second compound 0.0316 µM) of 5.34 µM, an IC50 (second compound 0.1 µM) of 4.4 µM and an IC50 (second compound 0.316 µM) of 1.03 µM. For the same compound, the IC50 (second compound 1 µM) was less than 0.0316 µM, the IC50 (second compound 3.16 µM) was less than 0.0316 µM and the IC50 (second compound 10 µM) was less than 0.0316 µM. The viability, T/C [1] was 66.7%, the viability, T/C [2] was 65% and the viability, T/C [3] was 73.8%. For the same compound, the viability, T/C [4] was 79.6%, the viability, T/C [5] was 77.5% and the viability, T/C [6] was 22.9%. It also gave a viability, T/C [7] of 59.4%, a viability, T/C [8] of 65% and a viability, T/C [9] of 62.9%. For the same compound, the viability, T/C [10] was 71.4%, the viability, T/C [11] was 63.4% and the viability, T/C [12] was 16.3%. For the same compound, the viability, T/C [13] was 46.7%, the viability, T/C [14] was 49% and the viability, T/C [15] was 49.6%. The viability, T/C [16] was 55.5%, the viability, T/C [17] was 47.8% and the viability, T/C [18] was 7.89%. For the same compound, the viability, T/C [19] was 31.4%, the viability, T/C [20] was 30.6% and the viability, T/C [21] was 33.4%. The viability, T/C [22] was 32.7%, the viability, T/C [23] was 28.7% and the viability, T/C [24] was 3.22%. The viability, T/C [25] was 15.9%, the viability, T/C [26] was 17% and the viability, T/C [27] was 17.7%. It also gave a viability, T/C [28] of 18.8%, a viability, T/C [29] of 13.3% and a viability, T/C [30] of 1.08%. It also gave a viability, T/C [31] of 4.21%, a viability, T/C [32] of 4.48% and a viability, T/C [33] of 5.01%. The viability, T/C [34] was 5.05%, the viability, T/C [35] was 2.85% and the viability, T/C [36] was 0.32%.
